# Laboratory results published in patent publication US20090156517A1, “STABLE PHARMACEUTICAL COMPOSITIONS OF AMINOGLYCOSIDE ANTIBIOTICS, ION-CHELATING AGENTS, AND BUFFERS” (priority 2006, published 2009).
# Assay: Amounts of antibiotic components in the solution over time (reverse-phase LC/UV for β-lactams and β-lactamase inhibitors, HPLC/evaporation-light-scattering for aminoglycosides)
# Type: physicochemical
# Protocol: The amounts of β-lactam antibiotics and β-lactamase inhibitor were determined using C18 reverse-phase LC and UV-VIS detector (Tianjin […] Co., Ltd., analysis method No. HM-K-03). The content of aminoglycoside antibiotics was measured using reverse-phase HPLC and evaporation-light-scattering detector (Tianjin […] Co., Ltd., analysis method No. HM-K-08). […] The relative amount of each antibiotic component in the composition at each time point was expressed as peak area ratio with respect to the corresponding peak area of an external standard.
compound,measurement,setting,value
"CCN1CCN(C(=O)N[C@@H](C(=O)N[C@@H]2C(=O)N3C(C(=O)O)=C(CSc4nnnn4C)CS[C@H]23)c2ccc(O)cc2)C(=O)C1=O [Cefoperazone sodium, cefoperazone sodium]","Amount of component, percentage of amount at initial time","Example 4 solution (cefoperazone sodium, sulbactam sodium, gentamicin, sodium citrate pH 6.75, no EDTA), room temperature, 0 h",101.4%
same,"Amount of component, percentage of amount at initial time","Example 4 solution (cefoperazone sodium, sulbactam sodium, gentamicin, sodium citrate pH 6.75, no EDTA), room temperature, 1 h",98.66%
same,"Amount of component, percentage of amount at initial time","Example 4 solution (cefoperazone sodium, sulbactam sodium, gentamicin, sodium citrate pH 6.75, no EDTA), room temperature, 2 h",98.79%
same,"Amount of component, percentage of amount at initial time","Example 4 solution (cefoperazone sodium, sulbactam sodium, gentamicin, sodium citrate pH 6.75, no EDTA), room temperature, 4 h",101.5%
same,"Amount of component, percentage of amount at initial time","Example 4 solution (cefoperazone sodium, sulbactam sodium, gentamicin, sodium citrate pH 6.75, no EDTA), room temperature, 6 h",107.4%
same,"Amount of component, percentage of amount at initial time","Example 5 solution (cefoperazone sodium, sulbactam sodium, gentamicin, disodium EDTA, sodium citrate pH 6.75), room temperature, 0 h",101.4%
same,"Amount of component, percentage of amount at initial time","Example 5 solution (cefoperazone sodium, sulbactam sodium, gentamicin, disodium EDTA, sodium citrate pH 6.75), room temperature, 1 h",98.66%
same,"Amount of component, percentage of amount at initial time","Example 5 solution (cefoperazone sodium, sulbactam sodium, gentamicin, disodium EDTA, sodium citrate pH 6.75), room temperature, 2 h",98.79%
same,"Amount of component, percentage of amount at initial time","Example 5 solution (cefoperazone sodium, sulbactam sodium, gentamicin, disodium EDTA, sodium citrate pH 6.75), room temperature, 4 h",101.5%
same,"Amount of component, percentage of amount at initial time","Example 5 solution (cefoperazone sodium, sulbactam sodium, gentamicin, disodium EDTA, sodium citrate pH 6.75), room temperature, 6 h",107.4%
same,"Amount of component, percentage of amount at initial time","Example 6 solution (cefoperazone sodium, sulbactam sodium, etimicin sulfate, disodium EDTA, sodium citrate pH 6.5), room temperature, 0 h",110.4%
same,"Amount of component, percentage of amount at initial time","Example 6 solution (cefoperazone sodium, sulbactam sodium, etimicin sulfate, disodium EDTA, sodium citrate pH 6.5), room temperature, 1 h",99.48%
same,"Amount of component, percentage of amount at initial time","Example 6 solution (cefoperazone sodium, sulbactam sodium, etimicin sulfate, disodium EDTA, sodium citrate pH 6.5), room temperature, 2 h",101.3%
same,"Amount of component, percentage of amount at initial time","Example 6 solution (cefoperazone sodium, sulbactam sodium, etimicin sulfate, disodium EDTA, sodium citrate pH 6.5), room temperature, 4 h",98.66%
same,"Amount of component, percentage of amount at initial time","Example 6 solution (cefoperazone sodium, sulbactam sodium, etimicin sulfate, disodium EDTA, sodium citrate pH 6.5), room temperature, 6 h",98.02%
same,"Amount of component, percentage of amount at initial time","Example 6 solution (cefoperazone sodium, sulbactam sodium, etimicin sulfate, disodium EDTA, sodium citrate pH 6.5), room temperature, 8 h",99.30%
same,"Amount of component, percentage of amount at initial time","Example 14: cefoperazone sodium/tazobactam sodium solution pH 6.75, disodium EDTA and amikacin sulfate added, room temperature, 0 h",100.2%
same,"Amount of component, percentage of amount at initial time","Example 14: cefoperazone sodium/tazobactam sodium solution pH 6.75, disodium EDTA and amikacin sulfate added, room temperature, 1 h",99.0%
same,"Amount of component, percentage of amount at initial time","Example 14: cefoperazone sodium/tazobactam sodium solution pH 6.75, disodium EDTA and amikacin sulfate added, room temperature, 2 h",99.0%
same,"Amount of component, percentage of amount at initial time","Example 14: cefoperazone sodium/tazobactam sodium solution pH 6.75, disodium EDTA and amikacin sulfate added, room temperature, 4 h",96.2%
same,"Amount of component, percentage of amount at initial time","Example 14: cefoperazone sodium/tazobactam sodium solution pH 6.75, disodium EDTA and amikacin sulfate added, room temperature, 6 h",94.5%
same,"Amount of component, percentage of amount at initial time","Example 14: cefoperazone sodium/tazobactam sodium solution pH 6.75, disodium EDTA and amikacin sulfate added, room temperature, 8 h",95.3%
same,"Amount of component, percentage of amount at initial time","Example 14: cefoperazone sodium/tazobactam sodium solution pH 6.75, etimicin sulfate added, 0 h",100.2%
same,"Amount of component, percentage of amount at initial time","Example 14: cefoperazone sodium/tazobactam sodium solution pH 6.75, etimicin sulfate added, 1 h",99.0%
same,"Amount of component, percentage of amount at initial time","Example 14: cefoperazone sodium/tazobactam sodium solution pH 6.75, etimicin sulfate added, 2 h",99.0%
same,"Amount of component, percentage of amount at initial time","Example 14: cefoperazone sodium/tazobactam sodium solution pH 6.75, etimicin sulfate added, 4 h",96.2%
same,"Amount of component, percentage of amount at initial time","Example 14: cefoperazone sodium/tazobactam sodium solution pH 6.75, etimicin sulfate added, 6 h",94.5%
same,"Amount of component, percentage of amount at initial time","Example 14: cefoperazone sodium/tazobactam sodium solution pH 6.75, etimicin sulfate added, 8 h",95.3%
"CO/N=C(\C(=O)N[C@@H]1C(=O)N2C(C(=O)O)=C(CSc3nc(=O)c(=O)[nH]n3C)CS[C@H]12)c1csc(N)n1 [Ceftriaxone sodium, ceftriaxone sodium]","Amount of component, percentage of amount at initial time","Example 7 solution (ceftriaxone sodium, sulbactam sodium, etimicin sulfate, disodium EDTA, sodium citrate pH 6.5), room temperature, 0 h",97.01%
same,"Amount of component, percentage of amount at initial time","Example 7 solution (ceftriaxone sodium, sulbactam sodium, etimicin sulfate, disodium EDTA, sodium citrate pH 6.5), room temperature, 1 h",100.3%
same,"Amount of component, percentage of amount at initial time","Example 7 solution (ceftriaxone sodium, sulbactam sodium, etimicin sulfate, disodium EDTA, sodium citrate pH 6.5), room temperature, 2 h",96.40%
same,"Amount of component, percentage of amount at initial time","Example 7 solution (ceftriaxone sodium, sulbactam sodium, etimicin sulfate, disodium EDTA, sodium citrate pH 6.5), room temperature, 4 h",99.01%
same,"Amount of component, percentage of amount at initial time","Example 7 solution (ceftriaxone sodium, sulbactam sodium, etimicin sulfate, disodium EDTA, sodium citrate pH 6.5), room temperature, 6 h",98.91%
same,"Amount of component, percentage of amount at initial time","Example 7 solution (ceftriaxone sodium, sulbactam sodium, etimicin sulfate, disodium EDTA, sodium citrate pH 6.5), room temperature, 8 h",99.53%
same,"Amount of component, percentage of amount at initial time","Example 8 solution (ceftriaxone sodium, tazobactam sodium, gentamicin sulfate, sodium citrate pH 6.75), room temperature, 0 h",98.75%
same,"Amount of component, percentage of amount at initial time","Example 8 solution (ceftriaxone sodium, tazobactam sodium, gentamicin sulfate, sodium citrate pH 6.75), room temperature, 1 h",100.1%
same,"Amount of component, percentage of amount at initial time","Example 8 solution (ceftriaxone sodium, tazobactam sodium, gentamicin sulfate, sodium citrate pH 6.75), room temperature, 2 h",99.97%
same,"Amount of component, percentage of amount at initial time","Example 8 solution (ceftriaxone sodium, tazobactam sodium, gentamicin sulfate, sodium citrate pH 6.75), room temperature, 4 h",98.87%
same,"Amount of component, percentage of amount at initial time","Example 8 solution (ceftriaxone sodium, tazobactam sodium, gentamicin sulfate, sodium citrate pH 6.75), room temperature, 6 h",99.27%
same,"Amount of component, percentage of amount at initial time","Example 8 solution (ceftriaxone sodium, tazobactam sodium, gentamicin sulfate, sodium citrate pH 6.75), room temperature, 8 h",100.5%
